Drawing on US7022736B2, “Enzyme inhibitors” (Istituto Di Ricerche Di Biologia Molecolare P Angeletti SpA, priority 1998, dated 2006), this text covers IC50 for 65 molecules.

T1 sequence (P26663 2420-3010): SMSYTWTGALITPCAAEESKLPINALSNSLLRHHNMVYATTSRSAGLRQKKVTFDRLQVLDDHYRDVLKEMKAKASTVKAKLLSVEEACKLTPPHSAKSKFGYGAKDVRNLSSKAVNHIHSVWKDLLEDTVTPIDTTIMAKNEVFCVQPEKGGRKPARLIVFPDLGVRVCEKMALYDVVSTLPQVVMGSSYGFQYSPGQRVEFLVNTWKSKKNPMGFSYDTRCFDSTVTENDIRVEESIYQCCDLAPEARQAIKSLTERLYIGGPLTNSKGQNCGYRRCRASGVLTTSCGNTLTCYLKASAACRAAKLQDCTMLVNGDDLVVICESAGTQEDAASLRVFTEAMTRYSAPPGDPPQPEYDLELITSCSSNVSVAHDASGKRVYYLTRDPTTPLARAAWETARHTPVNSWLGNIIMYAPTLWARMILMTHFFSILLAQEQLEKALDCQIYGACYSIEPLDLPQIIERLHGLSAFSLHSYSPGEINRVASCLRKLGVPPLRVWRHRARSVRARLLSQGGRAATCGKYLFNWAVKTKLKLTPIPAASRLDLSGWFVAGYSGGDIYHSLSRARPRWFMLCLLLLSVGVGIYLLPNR

One experiment concerns the target T1, HCV RdRp (NS5B RNA-dependent RNA polymerase) (Hepatitis C virus genotype 1b, UniProt P26663).
T1 construct: The HCV NS5B protein is the viral RdRp; made in house; host or cells: insect cells infected with recombinant baculovirus
The experiment in a line: Inhibition of hepatitis C virus RdRp (poly(A)/oligo(U), [3H]UTP incorporation). Type of experiment: biochemical. The note with it: Tables I-VIII; 20 nM NS5B, 1 hour at 22° C.; read-out: IC 50 (μM), HCV-polymerase. As to the method:
In initial tests, the compounds were tested to see if they were effective as inhibitors of the RNA-dependent RNA polymerase (RdRp) of hepatitis C virus (HCV). The HCV NS5B protein is the viral RdRp; compounds capable of interfering with the activity of this enzyme are thus expected to block viral replication.
Test for Inhibition of Hepatatis C Virus RdRp
WO96/37619 describes the production of recombinant HCV RdRp from insect cells infected with recombinant baculovirus encoding the enzyme. […] The reference describes a polymerisation assay using poly (A) as a template and oligo (U) as a primer. Incorporation of tritiated UTP is quantified by measuring acid-insoluble radioactivity. The present inventors have employed this assay to screen the various compounds described above as inhibitors of HCV RdRp and other virally encoded polymerases.
Incorporation of radioactive UMP was measured as follows. The standard reaction (100 μl) was carried out in a buffer containing 20 mM tris/HCl pH 7.5, 5 mM MgCl2, 1 mM DTT, 50 mM NaCl, 1 mM EDTA, 2 OU Rnasin (Promega), 0.05% Triton X-100, 1 μCi[^3H] UTP (40 Ci/mmol,NEN), 10 μM UTP and 10 μg/ml poly (A). Oligo (U)12 (1 μg/ml, Genset) was added as a primer. The final NSSB enzyme concentration was 20 nM. After 1 hour incubation at 22° C. the reaction was stopped by adding 100 μl of 20% TCA and applying samples to DE81 filters. The filters were washed thoroughly with 5% TCA containing 1M Na2HPO4/NaH2PO4, pH 7.0, rinsed with water and then ethanol, air dried, and the filter-bound radioactivity was measured in the scintillation counter. By carrying out the reaction in the presence of various concentrations of each of the compounds set out above it was possible to determine IC50 values for each compound with the formula: % residual activity=100/(1+[I]/IC50)^s where [I] is the inhibitor concentration and “s” is the slope of the inhibition curve. Test for Inhibition of Hepatitis B Virus Polymerase
Turning to `Cc1ccccc1COc1cccc(C(=O)C=C(O)C(=O)O)c1` [Example 91], the IC50 was determined as 6.2 µM.
Turning to `COc1cccc(COc2cccc(C(=O)C=C(O)C(=O)O)c2)c1` [Example 92], the IC50 worked out at 1 µM.
Same read-out and setting: then `O=C(O)C(O)=CC(=O)c1cccc(OCc2cccc(C(F)(F)F)c2)c1` [Example 93], with 1.9 µM.
On the same count and under the same terms, with `O=C(O)C(O)=CC(=O)c1cccc(OCc2cccc(F)c2)c1` [Example 94] the figure was 5.8 µM; with `O=C(O)C(O)=CC(=O)c1cccc(NS(=O)(=O)c2cc(Cl)sc2Cl)c1` [Example 95], 0.48 µM.
On the same count and under the same terms, then `O=C(O)C(O)=CC(=O)c1cccc(OCc2ccc(-c3ccccc3)cc2)c1` [Example 96], with 50 µM; and `O=C(O)C(O)=CC(=O)c1cccc(OCc2ccccc2-c2ccccc2)c1` [Example 97], with 2.8 µM.
As to `O=C(O)C(O)=CC(=O)c1cccc(OCc2cc(C(=O)O)ccc2Cl)c1` [Example 98], the IC50 was found to be 1 µM.
For the molecule `O=C(O)C(O)=CC(=O)c1cccc(OCc2ccc(C(=O)O)cc2Cl)c1` [Example 100], the IC50 was 7.8 µM.
As to `O=C(O)C(O)=CC(=O)c1cccc(NS(=O)(=O)c2cccs2)c1` [Example 101], the IC50 was 7 µM.
On the same count and under the same terms, then `O=C(O)C(O)=CC(=O)c1cccc(NS(=O)(=O)c2ccc(Cl)s2)c1` [Example 102], with 1.5 µM.
Still for that read-out and setting: then `O=C(O)C(O)=CC(=O)c1cccc(OCc2cc(-c3ccccc3)on2)c1` [Example 103], with 6 µM.
In the case of `O=C(O)C(O)=CC(=O)c1cccc(OCc2cccc(Oc3ccccc3)c2)c1` [Example 104], the IC50 stood at 50 µM.
On the same count and under the same terms, then `O=C(O)C(O)=CC(=O)c1cccc(OCc2cccc[n+]2[O-])c1` [Example 105], with 13.7 µM.
As to `Cc1cc(COc2cccc(C(=O)C=C(O)C(=O)O)c2)no1` [Example 106], the IC50 turned out to be 6.8 µM.
The same measure, in the same setting: with `O=C(O)C(O)=CC(=O)c1cccc(NS(=O)(=O)Cc2ccccc2)c1` [Example 108] the figure was 6.9 µM; with `N#Cc1c(Cl)cccc1COc1cccc(C(=O)C=C(O)C(=O)O)c1` [Example 109], 0.17 µM.
On the same count and under the same terms, then `O=C(O)C(O)=CC(=O)c1cccc(COc2ccccc2)c1` [Example 110], with 30 µM; and `O=C(O)C(O)=CC(=O)c1cccc(NS(=O)(=O)c2ccc3ccccc3c2)c1` [Example 114], with 0.5 µM; and `O=C(O)C(O)=CC(=O)c1cccc(NS(=O)(=O)c2ccc(C(F)(F)F)cc2Cl)c1` [Example 115], with 3.7 µM.
Still for that read-out and setting: with `N#Cc1ccc(-c2ccccc2)cc1COc1cccc(C(=O)C=C(O)C(=O)O)c1` [Example 116] the figure was 0.3 µM; with `O=C(O)C(O)=CC(=O)c1cccc(NS(=O)(=O)c2cccc(Cl)c2Cl)c1` [Example 118], 0.2 µM; with `O=C(O)C(O)=CC(=O)c1cccc(NS(=O)(=O)c2cc(Cl)c(Cl)cc2Cl)c1` [Example 119], 0.049 µM.
Turning to `O=C(NCCc1ccccc1)Nc1cccc(C(=O)C=C(O)C(=O)O)c1` [Example 121], the IC50 came out at 4 µM.
The same measure, in the same setting: then `Cc1cccc(C(C)Oc2cccc(C(=O)C=C(O)C(=O)O)c2)c1C#N` (stereo not drawn) [Example 122], with 2 µM.
As for `Cc1c(Cl)cccc1S(=O)(=O)Nc1cccc(C(=O)C=C(O)C(=O)O)c1` [Example 123], the IC50 stood at 0.29 µM.
As for `O=C(O)C(O)=CC(=O)c1cccc(NS(=O)(=O)c2ccc(-c3ccccc3)cc2)c1` [Example 124], the IC50 was determined as 28 µM.
On the same count and under the same terms, with `O=C(O)C(O)=CC(=O)c1cccc(NS(=O)(=O)c2ccc(Cl)c(Cl)c2Cl)c1` [Example 125] the figure was 0.17 µM.
On the same count and under the same terms, then `O=C(O)C(O)=CC(=O)c1cccc(NS(=O)(=O)c2cc(Cl)cc(Cl)c2O)c1` [Example 127], with 0.3 µM; and `CCOC(=O)c1ccccc1S(=O)(=O)Nc1cccc(C(=O)C=C(O)C(=O)O)c1` [Example 128], with 24 µM; and `COc1ccc(Cl)cc1S(=O)(=O)Nc1cccc(C(=O)C=C(O)C(=O)O)c1` [Example 129], with 1.6 µM.
Still for that read-out and setting: with `O=C(O)C(O)=CC(=O)c1cccc(NS(=O)(=O)c2c(Cl)sc(Cl)c2Br)c1` [Example 130] the figure was 0.14 µM; with `O=C(O)C(O)=CC(=O)c1cccc(NS(=O)(=O)c2cccc(Cl)c2)c1` [Example 131], 0.78 µM.
In the case of `O=C(O)C(O)=CC(=O)c1cccc(OCc2cccc3ccccc23)c1` [Example 132], the IC50 is 0.67 µM.
Same read-out and setting: with `O=C(O)C(O)=CC(=O)c1cccc(OCc2ccc(Cl)c(Cl)c2)c1` [Example 133] the figure was 3.2 µM.
Same read-out and setting: with `O=C(O)C(O)=CC(=O)c1cccc(NS(=O)(=O)CCCCl)c1` [Example 134] the figure was 23 µM; with `O=C(O)C(O)=CC(=O)c1cccc(NS(=O)(=O)c2cc(Cl)c(Oc3ccc([N+](=O)[O-])cc3Cl)c(Cl)c2)c1` [Example 135], 21 µM.
In the case of `O=C(O)C(O)=CC(=O)c1cccc(NS(=O)(=O)c2ccc(Cl)c(Cl)c2)c1` [Example 136], the IC50 came to 0.2 µM.
The same measure, in the same setting: then `Cc1ccc(S(=O)(=O)Nc2cccc(C(=O)C=C(O)C(=O)O)c2)cc1Cl` [Example 137], with 0.9 µM; and `O=C(O)C(O)=CC(=O)c1cccc(NS(=O)(=O)c2ccc(F)cc2Cl)c1` [Example 138], with 1.1 µM; and `O=C(O)C(O)=CC(=O)c1cccc(OCc2c(Cl)cccc2Cl)c1` [Example 139], with 1.4 µM.
Still for that read-out and setting: then `O=C(O)C(O)=CC(=O)c1cccc(NS(=O)(=O)c2c(Cl)cc(C(F)(F)F)cc2Cl)c1` [Example 140], with 1 µM; and `O=C(O)C(O)=CC(=O)c1cccc(NS(=O)(=O)c2ccc(Cl)c([N+](=O)[O-])c2)c1` [Example 141], with 0.56 µM.
The same measure, in the same setting: then `O=C(O)C(O)=CC(=O)c1cccc(NS(=O)(=O)c2cccc([N+](=O)[O-])c2)c1` [Example 142], with 0.4 µM; and `O=C(O)C(O)=CC(=O)c1cccc(NS(=O)(=O)c2ccc(F)c(Cl)c2)c1` [Example 143], with 0.45 µM; and `O=C(O)C(O)=CC(=O)c1cccc(S(=O)(=O)Nc2ccccc2)c1` [Example 144], with 14 µM.
Regarding `O=C(O)C(O)=CC(=O)c1cccc(S(=O)(=O)Nc2ccc(Cl)cc2)c1` [Example 145], the IC50 was 1.2 µM.
As for `Cc1cc(C)c(S(=O)(=O)Nc2cccc(C(=O)C=C(O)C(=O)O)c2)c(C)c1` [Example 146], the IC50 was found to be 15 µM.
The same measure, in the same setting: then `Cc1cc(S(=O)(=O)Nc2cccc(C(=O)C=C(O)C(=O)O)c2)c(C)cc1Cl` [Example 147], with 1.3 µM; and `O=C(O)C(O)=CC(=O)c1cccc(NS(=O)(=O)c2c(Cl)cc(Cl)cc2Cl)c1` [Example 148], with 0.26 µM.
For `Cc1cc(S(=O)(=O)Nc2cccc(C(=O)C=C(O)C(=O)O)c2)c(Cl)cc1Cl` [Example 149], the IC50 was 0.55 µM.
Still for that read-out and setting: with `Cc1cc(Cl)cc(Cl)c1S(=O)(=O)Nc1cccc(C(=O)C=C(O)C(=O)O)c1` [Example 150] the figure was 2.3 µM.
`O=C(O)C(O)=CC(=O)c1cccc(NS(=O)(=O)c2ccc(Cl)cc2Cl)c1` [Example 151]: the IC50 is 0.5 µM.
On the same count and under the same terms, with `O=C(O)C(O)=CC(=O)c1cc(Cc2ccccc2)ccc1F` [Example 152] the figure was 20 µM; with `O=C(O)C(O)=CC(=O)c1cccc(Cn2nc3ccccc3n2)c1` [Example 153], 19 µM.
On the same count and under the same terms, then `O=C(O)C(O)=CC(=O)c1cccc(Cn2nnc3ccccc32)c1` [Example 154], with 30 µM; and `N#Cc1ccccc1COc1cc(O)cc(C(=O)C=C(O)C(=O)O)c1` [Example 158], with 0.2 µM; and `N#Cc1cccc(Cl)c1COc1cc(O)cc(C(=O)C=C(O)C(=O)O)c1` [Example 160], with 0.1 µM.
Take `O=C(O)C(O)=CC(=O)c1ccc(O)cc1` [Example 162]: the IC50 amounted to 5.5 µM.
The same measure, in the same setting: then `O=C(O)C(O)=CC(=O)c1ccc(F)cc1` [Example 163], with 26 µM; and `CCc1ccc(C(=O)C=C(O)C(=O)O)cc1` [Example 164], with 47 µM.
Same read-out and setting: with `Cc1ccc(C(=O)C=C(O)C(=O)O)c(C)c1` [Example 165] the figure was 2 µM; with `O=C(O)C(O)=CC(=O)c1ccc(Cl)cc1` [Example 166], 20 µM; with `Cc1ccc(C(=O)C=C(O)C(=O)O)c(OCCCC#N)c1` [Example 167], 0.6 µM.
The same measure, in the same setting: with `N#CCCCOc1cccc(OCCCC#N)c1C(=O)C=C(O)C(=O)O` [Example 171] the figure was 12 µM.

Still in this experiment, the particulars now being: Tables IXa-IXc; unit inferred; read-out: HCV (IC50).
Regarding `O=C(O)C(O)=CC(=O)c1cccc(OCc2cc(-c3ccccc3)on2)c1` [Example 103], the IC50 came to 6 µM.
On the same count and under the same terms, then `N#Cc1c(Cl)cccc1COc1cccc(C(=O)C=C(O)C(=O)O)c1` [Example 109], with 0.17 µM; and `N#Cc1ccc(-c2ccccc2)cc1COc1cccc(C(=O)C=C(O)C(=O)O)c1` [Example 116], with 0.3 µM; and `N#Cc1ccccc1COc1cc(O)cc(C(=O)C=C(O)C(=O)O)c1` [Example 158], with 0.2 µM.
On the same count and under the same terms, then `N#Cc1cccc(Cl)c1COc1cc(O)cc(C(=O)C=C(O)C(=O)O)c1` [Example 160], with 0.1 µM.
For `O=C(O)C(O)=CC(=O)c1ccc(O)cc1` [Example 162], the IC50 came out at 5.5 µM.
Still for that read-out and setting: then `Cc1ccc(C(=O)C=C(O)C(=O)O)c(C)c1` [Example 165], with 2 µM.
